The text below walks through data of US20230265151A1, “GIP/GLP1 CO-AGONIST COMPOUNDS” (priority 2020, published 2023).

Assay [1] deals with T1, human GIP receptor (hGIPR) (Homo sapiens, UniProt P48546).
T1 construct: expressed in transfected cells; crude membranes
T1 sequence (P48546 22-466): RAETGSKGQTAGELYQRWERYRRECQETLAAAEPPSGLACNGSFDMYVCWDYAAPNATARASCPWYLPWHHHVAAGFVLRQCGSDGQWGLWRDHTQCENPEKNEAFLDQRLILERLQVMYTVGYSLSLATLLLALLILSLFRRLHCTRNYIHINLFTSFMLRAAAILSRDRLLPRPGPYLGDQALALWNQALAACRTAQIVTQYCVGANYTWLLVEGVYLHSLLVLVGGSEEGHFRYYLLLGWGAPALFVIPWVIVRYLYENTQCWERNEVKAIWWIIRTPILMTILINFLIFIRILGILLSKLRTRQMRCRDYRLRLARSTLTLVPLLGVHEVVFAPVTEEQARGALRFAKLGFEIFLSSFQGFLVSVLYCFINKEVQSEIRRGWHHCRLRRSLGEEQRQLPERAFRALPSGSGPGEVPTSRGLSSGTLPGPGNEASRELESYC
Put plainly: [125I]-GIP binding, SPA with membranes of CHO cells expressing hGIPR.

Assay [2] addresses hGLP-1R (Homo sapiens, UniProt P43220). Kind of assay: Functional cAMP formation (HTRF) in HEK-293 clonal cells expressing hGLP-1R, 0.1% bovine casein, without or with 1.0% human serum albumin. In kind it is cell-based. Also on record: expressed in transfected cells. Conditions: 37° C.; for EC50: read-out: hGLP-1R EC50, nM (SEM, n). The method in brief: (§1)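 Readings of the HTRF 665/620 nm ratio, which falls as cAMP rises, were converted to nM cAMP using a standard curve after 30 min peptide exposure at 37° C.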
For orientation: Cyclic AMP is a second messenger, typically raised through Gs and lowered through Gi signalling.

Assay [3] concerns the target T2, hGIPR (Homo sapiens, UniProt P48546).
T2 construct: expressed in transfected cells
T2 sequence (P48546 22-466): T1 sequence (P48546 22-466)
Kind of assay: Functional cAMP formation (HTRF) in HEK-293 clonal cells expressing hGIPR, 0.1% bovine casein, without or with 1.0% human serum albumin. In kind it is cell-based. The method in brief:
as §1

The target in assay [4] is T3, hGCGR (Homo sapiens, UniProt P47871).
T3 construct: expressed in transfected cells
T3 sequence (P47871 26-477): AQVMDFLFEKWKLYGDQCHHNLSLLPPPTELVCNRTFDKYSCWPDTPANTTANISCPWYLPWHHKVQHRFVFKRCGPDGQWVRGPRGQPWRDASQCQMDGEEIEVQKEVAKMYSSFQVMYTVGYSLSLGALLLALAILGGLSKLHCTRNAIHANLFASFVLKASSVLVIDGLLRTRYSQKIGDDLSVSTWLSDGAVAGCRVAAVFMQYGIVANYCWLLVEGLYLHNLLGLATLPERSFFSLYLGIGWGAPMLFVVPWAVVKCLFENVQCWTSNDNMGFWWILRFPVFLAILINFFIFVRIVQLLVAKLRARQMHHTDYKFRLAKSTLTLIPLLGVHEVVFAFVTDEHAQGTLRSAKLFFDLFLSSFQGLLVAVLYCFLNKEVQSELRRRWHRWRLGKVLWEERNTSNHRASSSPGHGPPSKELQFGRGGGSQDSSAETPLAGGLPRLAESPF
Kind of assay: Functional cAMP formation (HTRF) in HEK-293 clonal cells expressing hGCGR, 0.1% bovine casein, without or with 1.0% human serum albumin. In kind it is cell-based. The method in brief: as §1

For assay [5], the target named is T4, human Gcg receptor (hGcgR) (Homo sapiens, UniProt P47871).
T4 construct: expressed in transfected cells; crude membranes
T4 sequence (P47871 26-477): as above
Put plainly: [125I]-Glucagon binding, SPA with membranes of HEK293 cells expressing hGcgR.

The mark [6] stands for this setting: human GIPR, geometric mean (SEM, n), read-out: Binding Affinity Ki, nM (SEM, n) hGIPR.
The mark [7] stands for this setting: human GcgR, geometric mean (SEM, n), read-out: Binding Affinity Ki, nM (SEM, n) hGCGR.

Molecules are shown by their SMILES. Read-outs that look alike come from different tables or passages of the source.

Sequence of hGLP-1R (P43220 24-463): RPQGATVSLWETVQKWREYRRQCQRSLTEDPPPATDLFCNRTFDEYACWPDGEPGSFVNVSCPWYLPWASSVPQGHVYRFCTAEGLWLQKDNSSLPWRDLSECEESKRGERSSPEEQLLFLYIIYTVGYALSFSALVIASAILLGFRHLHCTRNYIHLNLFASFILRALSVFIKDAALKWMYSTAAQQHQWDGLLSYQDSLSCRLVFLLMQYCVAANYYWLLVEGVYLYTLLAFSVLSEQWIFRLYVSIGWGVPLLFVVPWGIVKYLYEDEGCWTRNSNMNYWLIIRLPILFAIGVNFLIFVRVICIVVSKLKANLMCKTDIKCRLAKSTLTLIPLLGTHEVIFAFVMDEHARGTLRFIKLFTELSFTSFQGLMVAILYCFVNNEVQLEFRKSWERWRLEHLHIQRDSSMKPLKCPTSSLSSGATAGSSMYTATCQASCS

Usually Ki stands for the dissociation constant of the complex between target and ligand, obtained from inhibition or displacement. As usually defined, the Emax is the size of the effect at its maximum, as opposed to the concentration needed. In general, EC50 refers to the midpoint of the concentration-response curve. In the case of `CC[C@H](C)[C@H](NC(=O)[C@H](CC(C)C)NC(=O)[C@](C)(Cc1ccc(O)cc1)NC(=O)[C@H](CCCCNC(=O)COCCOCCNC(=O)COCCOCCNC(=O)CC[C@H](NC(=O)CCCCCCCCCCCCC(=O)O)C(=O)O)NC(=O)[C@@H](NC(=O)[C@H](Cc1ccccc1)NC(=O)[C@H](CCC(=O)O)NC(=O)C(C)(C)NC(=O)[C@H](CCC(N)=O)NC(=O)[C@H](C)NC(=O)[C@H](CCC(N)=O)NC(=O)[C@H](CCCN)NC(=O)[C@H](CC(=O)O)NC(=O)[C@H](CC(C)C)NC(=O)[C@](C)(CC(C)C)NC(=O)[C@@H](NC(=O)C(C)(C)NC(=O)[C@H](Cc1ccncc1)NC(=O)[C@H](CC(=O)O)NC(=O)[C@H](CO)NC(=O)[C@@H](NC(=O)[C@](C)(Cc1ccccc1F)NC(=O)[C@@H](NC(=O)CNC(=O)[C@H](CCC(=O)O)NC(=O)C(C)(C)NC(=O)[C@@H](N)Cc1ccc(O)cc1)[C@@H](C)O)[C@@H](C)O)[C@@H](C)CC)[C@@H](C)CC)C(=O)N[C@@H](CCCCNC(=O)COCCOCCNC(=O)COCCOCCNC(=O)CC[C@H](NC(=O)CCCCCCCCCCCCC(=O)O)C(=O)O)C(=O)NCC(=O)NCC(=O)N1CCC[C@H]1C(=O)N[C@@H](CO)C(=O)N[C@@H](CO)C(=O)NCC(=O)N[C@@H](C)C(=O)N1CCC[C@H]1C(=O)N1CCC[C@H]1C(=O)N1CCC[C@H]1C(=O)N[C@@H](CO)C(N)=O` [Example 411], the Ki in assay [1] (setting [6]) is 0.0375 nM; in assay [5] (setting [7]), above 957 nM. In addition, the Emax in assay [2] (HEK293, cAMP, 0.1% bovine casein, percent of maximal response to GLP-1(7-36)NH2, arithmetic mean, read-out: hGLP-1R Emax, % ± SEM) was determined as 110%; in assay [3] (HEK293, cAMP, 37° C., 0.1% bovine casein and 1.0% human serum albumin, percent of maximal response to GIP(1-42)NH2, read-out: hGIPR Emax, % ± SEM), 84.6%. For the same compound, the 50% effective concentration (EC50) in assay [2] (cAMP, 0.1% bovine casein (no human serum albumin), geometric mean) is 0.167 nM; in assay [2] (cAMP, 0.1% bovine casein and 1.0% human serum albumin, geometric mean (SEM, n)) it was 11.4 nM; in assay [3] (cAMP, 37° C., 0.1% bovine casein (no human serum albumin), geometric mean, read-out: hGIPR EC50, nM (SEM, n)) it was 0.0102 nM; in assay [3] (cAMP, 37° C., 0.1% bovine casein and 1.0% human serum albumin, geometric mean (SEM, n), read-out: hGIPR EC50, nM (SEM, n)) it was 1.09 nM; in assay [4] (cAMP, 37° C., 0.1% bovine casein (no human serum albumin), geometric mean, read-out: hGCGR EC50, nM (SEM, n)) it was above 9950 nM; in assay [4] (cAMP, 37° C., 0.1% bovine casein and 1.0% human serum albumin, geometric mean (SEM, n), read-out: hGCGR EC50, nM (SEM, n)), above 9950 nM.

Take `CC[C@H](C)[C@H](NC(=O)[C@H](CC(C)C)NC(=O)[C@](C)(Cc1ccc(O)cc1)NC(=O)[C@@H](CCC(=O)O)NC(=O)[C@@H](NC(=O)[C@H](Cc1ccccc1)NC(=O)[C@H](CCC(=O)O)NC(=O)C(C)(C)NC(=O)[C@H](CCC(N)=O)NC(=O)[C@H](C)NC(=O)[C@H](CCCCNC(=O)[C@@H](N)CCCCNC(=O)COCCOCCNC(=O)COCCOCCNC(=O)CC[C@H](NC(=O)CCCCCCCCCCCCC(=O)O)C(=O)O)NC(=O)[C@H](CCCN)NC(=O)[C@H](CC(=O)O)NC(=O)[C@H](CC(C)C)NC(=O)[C@](C)(CC(C)C)NC(=O)[C@@H](NC(=O)[C@H](CO)NC(=O)[C@H](Cc1ccncc1)NC(=O)[C@H](CC(=O)O)NC(=O)[C@H](CO)NC(=O)[C@@H](NC(=O)[C@](C)(Cc1ccccc1F)NC(=O)[C@@H](NC(=O)CNC(=O)[C@H](CCC(=O)O)NC(=O)C(C)(C)NC(=O)[C@@H](N)Cc1ccc(O)cc1)[C@@H](C)O)[C@@H](C)O)[C@@H](C)CC)[C@@H](C)CC)C(=O)N[C@@H](CCC(=O)O)C(=O)NCC(=O)NCC(=O)N[C@@H](CCCCNC(=O)[C@@H](N)CCCCNC(=O)COCCOCCNC(=O)COCCOCCNC(=O)CC[C@H](NC(=O)CCCCCCCCCCCCC(=O)O)C(=O)O)C(=O)N[C@@H](CO)C(=O)N[C@@H](CO)C(=O)NCC(=O)N[C@@H](C)C(=O)N1CCC[C@H]1C(=O)N1CCC[C@H]1C(=O)N1CCC[C@H]1C(=O)N[C@@H](CO)C(N)=O` [Example 37]: the Ki in assay [1] (setting [6]) is 0.171 nM; in assay [5] (setting [7]), above 957 nM. The EC50 is 17 nM in assay [2] (0.1% bovine casein and 1.0% human serum albumin, geometric mean); 0.306 nM in assay [3] (0.1% bovine casein and 1.0% human serum albumin, 37° C., geometric mean, read-out: hGIPR EC50, nM (SEM, n)); 0.0211 nM in assay [3] (cAMP, incubated at 37° C., 0.1% bovine casein (no human serum albumin), geometric mean, read-out: hGIPR EC50, nM (SEM, n)); above 9950 nM in assay [4] (0.1% bovine casein and 1.0% human serum albumin, 37° C., geometric mean, read-out: hGCGR EC50, nM (SEM, n)); above 9950 nM in assay [4] (cAMP, incubated at 37° C., 0.1% bovine casein (no human serum albumin), geometric mean, read-out: hGCGR EC50, nM (SEM, n)). Besides, the Emax is 88.5 ± 0.188% in assay [3] (HEK293, 0.1% bovine casein and 1.0% human serum albumin, 37° C., percent of maximal response to GIP(1-42)NH2, read-out: hGIPR Emax, % ± SEM); 91.2 ± 3.67% in assay [3] (HEK293, percent of maximal response to GIP(1-42)NH2, 37° C., 0.1% bovine casein, arithmetic mean, read-out: hGIPR Emax, % ± SEM).

Consider `CC[C@H](C)[C@H](NC(=O)[C@H](CC(C)C)NC(=O)[C@](C)(Cc1ccc(O)cc1)NC(=O)[C@H](CCCCNC(=O)COCCOCCNC(=O)COCCOCCNC(=O)CC[C@H](NC(=O)CCCCCCCCCOc1ccc(C(=O)O)cc1)C(=O)O)NC(=O)[C@@H](NC(=O)[C@H](Cc1ccccc1)NC(=O)[C@H](CCC(=O)O)NC(=O)C(C)(C)NC(=O)[C@H](CCC(N)=O)NC(=O)[C@H](C)NC(=O)[C@H](CCCCNC(=O)COCCOCCNC(=O)COCCOCCNC(=O)CC[C@H](NC(=O)CCCCCCCCCOc1ccc(C(=O)O)cc1)C(=O)O)NC(=O)[C@H](CCCN)NC(=O)[C@H](CC(=O)O)NC(=O)[C@H](CC(C)C)NC(=O)[C@](C)(CC(C)C)NC(=O)[C@@H](NC(=O)[C@H](CO)NC(=O)[C@H](Cc1ccncc1)NC(=O)[C@H](CC(=O)O)NC(=O)[C@H](CO)NC(=O)[C@@H](NC(=O)[C@](C)(Cc1ccccc1F)NC(=O)[C@@H](NC(=O)CNC(=O)[C@H](CCC(=O)O)NC(=O)C(C)(C)NC(=O)[C@@H](N)Cc1ccc(O)cc1)[C@@H](C)O)[C@@H](C)O)[C@@H](C)CC)[C@@H](C)CC)C(=O)N[C@@H](CCC(=O)O)C(=O)NCC(=O)NCC(=O)N1CCC[C@H]1C(=O)N[C@@H](CO)C(=O)N[C@@H](CO)C(=O)NCC(=O)N[C@@H](C)C(=O)N1CCC[C@H]1C(=O)N1CCC[C@H]1C(=O)N1CCC[C@H]1C(=O)N[C@@H](CO)C(N)=O` [Example 128], for which the Ki in assay [1] is 0.0314 nM; in assay [5], above 955 nM. Moreover, the Emax in assay [3] (HEK293, read-out: hGIPR Emax, % ± SEM, percent of maximal response to GIP(1-42)NH2, 37° C., 0.1% bovine casein, arithmetic mean) turned out to be 98.5 ± 2.47%. In addition, the EC50 in assay [3] (hGIPR EC50, nM (SEM, n), cAMP, incubated at 37° C., 0.1% bovine casein (no human serum albumin), geometric mean) was 0.0232 nM; in assay [4] (hGCGR EC50, nM (SEM, n), cAMP, incubated at 37° C., 0.1% bovine casein (no human serum albumin), geometric mean), above 9950 nM.
